# Assays:
# [1] = tested on: subjects with a caffeine habit; assay: fMRI connectivity and brain blood flow analysis after test beverage; assay type: in vivo, human; settings: subject that routinely ingests caffeine; brain regions consistent with caffeine cravings; FIG. 1 and FIG. 3
# Text: Measurement or detection of changes in the brain can be done using functional MRI (fMRI) and functional brain network analyses as known in the art. The following is an exemplary study using known techniques based upon fMRI scanning of human brains.
# These examples represent an intervention study (number of subjects=24) with a randomized controlled, double-blind, placebo-controlled crossover design. The study is designed to ensure completion of all possibilities in the order of delivering the test samples, i.e. each subject is administered each of the possible test beverages in different order. […] For initial baseline testing, subjects undergo 16 hours of caffeine and chocolate withdrawal for a baseline testing and then participate in four separate brain scanning visits over 5-10 weeks. Study participants are ideally healthy adults 18-55 who consume moderate (200-500 mg) amounts of caffeine daily. […] As determined from a medical screening session, any subjects with active neurological dysfunction (such as a major Axis I psychopathology, Alzheimer's disease, Parkinson's disease, prior history of stroke, epilepsy, or serious CNS trauma, ADHD, migraines, hypertension, diabetes, peripheral vascular disease, or taking vasoactive medications, such as antihypertensive medications) are excluded from the study. […]
# [2] = tested on: brain blood flow; settings: study using 6 participants; cited from earlier work
compound,measurement,setting,value
"Cn1c(=O)c2c(ncn2C)n(C)c1=O [Caffeine, caffeine]",change in blood flow/connectivity by fMRI,[1],reduction in blood flow/connectivity
same,brain blood flow difference between caffeine and theobromine,[2],5.03 ml/100 gm tissue/min

# Source: US20160158240A1, “Compositions Containing Defined Caffeine and Theobromine Levels with Enhanced Cognitive Properties” (The Hershey Company, priority 2014, published 2016)
